From patent US7964531B2, “3-phenoxy-4-pyridazinol derivatives and herbicidal composition containing the same” (Mitsui Chemicals Agro, Inc., priority 2001, dated 2011)

Experiments:
Type in all cases: in vivo
[1] = test system: transplanted paddy-field rice; test: Test Example 4: crop injury against transplanted paddy-field rice; settings: no second compound, after 25 days
Procedure, shortened: (§1)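 Flooded greenhouse pots of paddy soil were sown in the top 1 cm with dormancy-broken weed seeds and planted with tubers, and 2.2-leaf rice was transplanted. Three days later, water-diluted wettable powder was applied at set dosages, and growth inhibition was rated 25 days after that on a 0 (0–15%) to 5 (96–100%) scale.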

[2] = test system: annual broad-leaved weeds (Lindernia spp., Rotala indica); test: Test Example 1: herbicidal effects, paddy-field pot test; settings: wettable powder applied 3 days after transplanting, judged after 25 days
Procedure, shortened: (§2)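 Paddy-soil pots sown with weed seeds, germinated Cyperus serotinus tubers and 2.2-leaf rice transplants, kept flooded in a greenhouse. Wettable powder diluted in water applied at set dosage 3 days after transplanting. Weed control and rice injury scored 25 days later on a 0-5 growth-inhibition scale.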

Cyperus serotinus [3] = test: as above; settings: wettable powder applied 3 days after transplanting, judged after 25 days
Procedure, shortened: as §2

Scirpus joncoides [4] = test: as above; settings: wettable powder applied 3 days after transplanting, judged after 25 days
Procedure, shortened: as §2

[5] = test system: barnyardgrass (Echinochloa oryzicola Vasing.); test: as above; settings: wettable powder applied 3 days after transplanting, judged after 25 days
Procedure, shortened: as §2

barnyardgrass = test: Test Example 2: herbicidal effects (soil treatment); settings: dosage 5 kg/a; soil treatment the day after seeding; judged after 21 days
From the text: (§3) Judgment Standard • 0: Growth inhibition rate; 0 to 10% • 1: Growth inhibition rate; 11 to 30% • 2: Growth inhibition rate; 31 to 50% • 3: Growth inhibition rate; 51 to 70% • 4: Growth inhibition rate; 71 to 90% • 5: Growth inhibition rate; 91 to 100%.
(§4) Upland soil was filled in 150 cm^2 pot, and seeds of barnyardgrass and indian mustard (Brassica juncea (L.) Czern. et Coss) were sowed, and grown in a greenhouse. At the next day of seeding, a predetermined chemical dosage of the wettable powder prepared in accordance with Preparation example 1 was diluted in water and applied to soil surface. After 21 days from the treatment, herbicidal effects were judged in accordance with the judgment standard of Test example 1, and the results were shown in Table 3.

[6] = test system: indian mustard (Brassica juncea (L.) Czern. et Coss); test: as above; settings: dosage 5 kg/a; soil treatment the day after seeding; judged after 21 days
From the text: as §3, §4

[7] = test system: annual broad-leaved weeds (Lindernia spp. and Rotala indica); test: Test Example 4: herbicidal effects of mixed wettable powder, paddy-field pot test; settings: no second compound, after 25 days
Procedure, shortened: as §1

Cyperus serotinus [8] = test: as above; settings: no second compound, after 25 days
Procedure, shortened: as §1

Eleocharis kuroguwai = test: as above; settings: no second compound, after 25 days
Procedure, shortened: as §1

Sagittaria pygmaea = test: as above; settings: no second compound, after 25 days
Procedure, shortened: as §1

Scirpus joncoides [9] = test: as above; settings: no second compound, after 25 days
Procedure, shortened: as §1

[10] = test system: barnyardgrass (Echinochloa oryzicola Vasing.); test: as above; settings: no second compound, after 25 days
Procedure, shortened: as §1

[11] = test system: transplanted paddy-field rice; test: Test Example 1: crop injury against transplanted paddy-field rice; settings: wettable powder applied 3 days after transplanting, judged after 25 days
Procedure, shortened: as §2

SMILES	Crop injury against transplanted rice ([1]; derivative 5 g/a)	Crop injury against transplanted rice ([1]; derivative 10 g/a)	Herbicidal effects Broad leaf ([2]; chemical dosage 10 g/a)	Herbicidal effects Broad leaf ([2]; chemical dosage 20 g/a)	Herbicidal effects Cyperus serotinus (Cyperus serotinus [3]; chemical dosage 10 g/a)	Herbicidal effects Cyperus serotinus (Cyperus serotinus [3]; chemical dosage 20 g/a)	Herbicidal effects Scirpus joncoides (Scirpus joncoides [4]; chemical dosage 10 g/a)	Herbicidal effects Scirpus joncoides (Scirpus joncoides [4]; chemical dosage 20 g/a)	Herbicidal effects Barnyard grass ([5]; chemical dosage 10 g/a)	Herbicidal effects Barnyard grass ([5]; chemical dosage 20 g/a)	Herbicidal effects Barnyard-grass (barnyardgrass)	Herbicidal effects indian mustard [6]	Herbicidal effects Broad leaf ([7]; derivative 5 g/a)	Herbicidal effects Broad leaf ([7]; derivative 10 g/a)	Herbicidal effects Cyperus serotinus (Cyperus serotinus [8]; derivative 5 g/a)	Herbicidal effects Cyperus serotinus (Cyperus serotinus [8]; derivative 10 g/a)	Herbicidal effects Eleocharis kuroguwai (Eleocharis kuroguwai; derivative 5 g/a)	Herbicidal effects Eleocharis kuroguwai (Eleocharis kuroguwai; derivative 10 g/a)	Crop injury against transplanted rice ([11]; chemical dosage 10 g/a)	Crop injury against transplanted rice ([11]; chemical dosage 20 g/a)	also measured
Cc1cccc(Br)c1Oc1nnc(Cl)cc1O [Example 249]	0 (Growth-inhibition rate; 0 to 15%)	0 (Growth-inhibition rate; 0 to 15%)	5 (Growth inhibition rate; 91 to 100%)	5 (Growth inhibition rate; 91 to 100%)	5 (Growth inhibition rate; 91 to 100%)	5 (Growth inhibition rate; 91 to 100%)	5 (Growth inhibition rate; 91 to 100%)	5 (Growth inhibition rate; 91 to 100%)	2 (Growth inhibition rate; 31 to 50%)	3 (Growth inhibition rate; 51 to 70%)	4 (Growth inhibition rate; 71 to 90%)	5 (Growth inhibition rate; 91 to 100%)	5 (Growth inhibition rate; 96 to 100%)	5 (Growth inhibition rate; 96 to 100%)	5 (Growth inhibition rate; 96 to 100%)	5 (Growth inhibition rate; 96 to 100%)	1 (Growth inhibition rate; 16 to 35%)	2 (Growth inhibition rate; 36 to 55%)	0 (Growth inhibition rate; 0 to 10%)	3 (Growth inhibition rate; 51 to 70%)	Herbicidal effects Sagittaria pygmaea (Sagittaria pygmaea; derivative 5 g/a): 5 (Growth inhibition rate; 96 to 100%); Herbicidal effects Sagittaria pygmaea (Sagittaria pygmaea; derivative 10 g/a): 5 (Growth inhibition rate; 96 to 100%); Herbicidal effects Scirpus joncoides (Scirpus joncoides [9]; derivative 5 g/a): 3 (Growth inhibition rate; 56 to 75%); Herbicidal effects Scirpus joncoides (Scirpus joncoides [9]; derivative 10 g/a): 5 (Growth inhibition rate; 96 to 100%); Herbicidal effects Barnyard grass ([10]; derivative 5 g/a): 1 (Growth inhibition rate; 16 to 35%); Herbicidal effects Barnyard grass ([10]; derivative 10 g/a): 2 (Growth inhibition rate; 36 to 55%)
Oc1cc(Cl)nnc1Oc1c(Br)ccc2ccoc12 [Example 309]			5 (Growth inhibition rate; 91 to 100%)	5 (Growth inhibition rate; 91 to 100%)	5 (Growth inhibition rate; 91 to 100%)	5 (Growth inhibition rate; 91 to 100%)	5 (Growth inhibition rate; 91 to 100%)	5 (Growth inhibition rate; 91 to 100%)	4 (Growth inhibition rate; 71 to 90%)	5 (Growth inhibition rate; 91 to 100%)	5 (Growth inhibition rate; 91 to 100%)	5 (Growth inhibition rate; 91 to 100%)							2 (Growth inhibition rate; 31 to 50%)	5 (Growth inhibition rate; 91 to 100%)	
Oc1cc(Cl)nnc1Oc1cccc2c1CCC2 [Example 171]	0 (Growth-inhibition rate; 0 to 15%)	0 (Growth-inhibition rate; 0 to 15%)	5 (Growth inhibition rate; 91 to 100%)	5 (Growth inhibition rate; 91 to 100%)	5 (Growth inhibition rate; 91 to 100%)	5 (Growth inhibition rate; 91 to 100%)	5 (Growth inhibition rate; 91 to 100%)	5 (Growth inhibition rate; 91 to 100%)	3 (Growth inhibition rate; 51 to 70%)	4 (Growth inhibition rate; 71 to 90%)	5 (Growth inhibition rate; 91 to 100%)	5 (Growth inhibition rate; 91 to 100%)	5 (Growth inhibition rate; 96 to 100%)	5 (Growth inhibition rate; 96 to 100%)	5 (Growth inhibition rate; 96 to 100%)	5 (Growth inhibition rate; 96 to 100%)	2 (Growth inhibition rate; 36 to 55%)	3 (Growth inhibition rate; 56 to 75%)	0 (Growth inhibition rate; 0 to 10%)	0 (Growth inhibition rate; 0 to 10%)	Herbicidal effects Sagittaria pygmaea (Sagittaria pygmaea; derivative 5 g/a): 5 (Growth inhibition rate; 96 to 100%); Herbicidal effects Sagittaria pygmaea (Sagittaria pygmaea; derivative 10 g/a): 5 (Growth inhibition rate; 96 to 100%); Herbicidal effects Scirpus joncoides (Scirpus joncoides [9]; derivative 5 g/a): 5 (Growth inhibition rate; 96 to 100%); Herbicidal effects Scirpus joncoides (Scirpus joncoides [9]; derivative 10 g/a): 5 (Growth inhibition rate; 96 to 100%); Herbicidal effects Barnyard grass ([10]; derivative 5 g/a): 2 (Growth inhibition rate; 36 to 55%); Herbicidal effects Barnyard grass ([10]; derivative 10 g/a): 3 (Growth inhibition rate; 56 to 75%)
Oc1cc(Cl)nnc1Oc1c(Cl)cccc1C1CC1 [Example 245]	0 (Growth-inhibition rate; 0 to 15%)	0 (Growth-inhibition rate; 0 to 15%)	5 (Growth inhibition rate; 91 to 100%)	5 (Growth inhibition rate; 91 to 100%)	5 (Growth inhibition rate; 91 to 100%)	5 (Growth inhibition rate; 91 to 100%)	5 (Growth inhibition rate; 91 to 100%)	5 (Growth inhibition rate; 91 to 100%)	4 (Growth inhibition rate; 71 to 90%)	4 (Growth inhibition rate; 71 to 90%)	3 (Growth inhibition rate; 51 to 70%)	5 (Growth inhibition rate; 91 to 100%)	5 (Growth inhibition rate; 96 to 100%)	5 (Growth inhibition rate; 96 to 100%)	4 (Growth inhibition rate; 7.6 to 95%)	5 (Growth inhibition rate; 96 to 100%)	0 (Growth-inhibition rate; 0 to 15%)	1 (Growth inhibition rate; 16 to 35%)	0 (Growth inhibition rate; 0 to 10%)	0 (Growth inhibition rate; 0 to 10%)	Herbicidal effects Sagittaria pygmaea (Sagittaria pygmaea; derivative 5 g/a): 4 (Growth inhibition rate; 7.6 to 95%); Herbicidal effects Sagittaria pygmaea (Sagittaria pygmaea; derivative 10 g/a): 5 (Growth inhibition rate; 96 to 100%); Herbicidal effects Scirpus joncoides (Scirpus joncoides [9]; derivative 5 g/a): 5 (Growth inhibition rate; 96 to 100%); Herbicidal effects Scirpus joncoides (Scirpus joncoides [9]; derivative 10 g/a): 5 (Growth inhibition rate; 96 to 100%); Herbicidal effects Barnyard grass ([10]; derivative 5 g/a): 3 (Growth inhibition rate; 56 to 75%); Herbicidal effects Barnyard grass ([10]; derivative 10 g/a): 4 (Growth inhibition rate; 7.6 to 95%)
Cc1cccc(I)c1Oc1nnc(Cl)cc1O [Example 256]			5 (Growth inhibition rate; 91 to 100%)	5 (Growth inhibition rate; 91 to 100%)	5 (Growth inhibition rate; 91 to 100%)	5 (Growth inhibition rate; 91 to 100%)	5 (Growth inhibition rate; 91 to 100%)	5 (Growth inhibition rate; 91 to 100%)	3 (Growth inhibition rate; 51 to 70%)	4 (Growth inhibition rate; 71 to 90%)	3 (Growth inhibition rate; 51 to 70%)	5 (Growth inhibition rate; 91 to 100%)							2 (Growth inhibition rate; 31 to 50%)	3 (Growth inhibition rate; 51 to 70%)	
